From patent publication US8546579B2, “Bicycloheteroaryl compounds as P2X7 modulators and uses thereof” (Evotec (US) Inc., priority 2006, dated 2013)

What follows are compounds tested against T1, P2X7 receptor (Homo sapiens, UniProt Q99572) (assay: IL-1β release assay in differentiated THP-1 cells stimulated with BzATP (Example 9)). Details: 0.1 μM compound; differentiated THP-1 cells, BzATP 250 uM; "*" class symbols; read-out: IL-1β % Inhib. ("*" symbols: at 0.1 μM).
T1 construct: host or cells: THP-1 cells differentiated with LPS and IFN-γ
T1 sequence (Q99572 1-595): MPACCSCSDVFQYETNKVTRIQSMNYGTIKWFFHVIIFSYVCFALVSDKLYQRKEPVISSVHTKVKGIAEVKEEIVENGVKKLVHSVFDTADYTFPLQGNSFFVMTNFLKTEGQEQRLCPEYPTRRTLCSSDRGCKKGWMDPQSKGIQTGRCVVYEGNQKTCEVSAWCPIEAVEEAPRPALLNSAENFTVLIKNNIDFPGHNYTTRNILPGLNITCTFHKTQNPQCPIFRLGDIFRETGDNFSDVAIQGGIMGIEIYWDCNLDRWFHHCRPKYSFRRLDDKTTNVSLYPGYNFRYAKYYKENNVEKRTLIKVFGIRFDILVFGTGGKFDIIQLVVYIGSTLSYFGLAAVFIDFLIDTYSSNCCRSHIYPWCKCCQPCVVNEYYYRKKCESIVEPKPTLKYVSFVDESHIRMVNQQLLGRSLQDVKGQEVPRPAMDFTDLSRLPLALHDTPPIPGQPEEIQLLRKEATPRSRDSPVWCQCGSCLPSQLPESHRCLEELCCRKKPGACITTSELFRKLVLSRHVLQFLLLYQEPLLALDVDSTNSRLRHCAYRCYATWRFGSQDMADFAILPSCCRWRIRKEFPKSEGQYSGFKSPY
Assay type: cell-based
Set-up: inhibition: dose or concentration left out as unconfirmed
How it was run: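 THP-1 cells differentiated 16 h with LPS and IFN-γ (100 ng/mL each), re-primed 2 h with LPS, then compound-pretreated 30 min before 250 uM BzATP for 45 min. Supernatant IL-1β quantified by ELISA; background-adjusted percent inhibition fitted to four-parameter logistic for IC50.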

Row | inhibition at 0.1 µM | Compound
1 | 0 to 25% | Cc1ccc(CCC(=O)Nc2cccc3c(=O)n(Cc4ccc(OC(F)(F)F)cc4)ccc23)c(C)c1 [Compound 1609]
2 | 26 to 50% | CC(c1ccccn1)n1ccc2c(NC(=O)Cc3ccc(Cl)c(F)c3)cccc2c1=O (centres unmarked) [Compound 1637]

Same assay, conditions: 0.1 μM compound; differentiated THP-1 cells, BzATP 250 uM; symbols * to ****; read-out: IL-1β % Inhib. (asterisk symbols: at 0.1 μM)

Row | inhibition at 0.1 µM | Compound
3 | 0 to 25% | COc1ccc(CCC(=O)Nc2cccc3c(=O)n(Cc4cccnc4)ccc23)cc1 [Compound 1349]
4 | 0 to 25% | C[C@H]1CC[C@H](C(=O)Nc2cccc3c(=O)n(CC4CCOCC4)ccc23)CC1 [Compound 1395]

Same assay, conditions: 0.3 μM compound; differentiated THP-1 cells, BzATP 250 uM; "+" class symbols; read-out: IL-1β % Inhib. @ 0.3 μM

Row | inhibition at 0.3 µM | Compound
5 | ≥ 76% | CC(C)(C)OC(=O)N1CCC[C@H]1Cn1ccc2c(NC(=O)CC3CCCCCC3)cccc2c1=O [Compound 1619]
6 | 26 to 50% | CS(=O)(=O)CCn1ccc2c(NC(=O)Cc3ccc(Cl)c(Cl)c3)cccc2c1=O [Compound 1632]
7 | 0 to 25% | CS(=O)(=O)CCn1ccc2c(NC(=O)CC3(O)CCCCCC3)cccc2c1=O [Compound 1625]
8 | ≥ 76% | COCCn1ccc2c(NC(=O)Cc3ccc(Cl)c(C(F)(F)F)c3)cccc2c1=O [Compound 1623, 2-(4-Chloro-3-trifluoromethyl-phenyl)-N-[2-(2-methoxy-ethyl)-1-oxo-1,2-dihydro-isoquinolin-5-yl]-acetamide]
9 | 0 to 25% | CC(C(N)=O)n1ccc2c(NC(=O)C3COc4cc(C(C)(C)C)ccc4O3)cccc2c1=O (centres unmarked) [Compound 1622]

Same assay, conditions: 0.3 μM compound; differentiated THP-1 cells, BzATP 250 uM; '+' class symbols; read-out: IL-1β % Inhib. @ 0.3 μM

Row | Compound | inhibition at 0.3 µM
10 | O=C(CCc1ccc(Cl)cc1)Nc1cccc2c(=O)n(CC3CCOCC3)ccc12 [Compound 1125] | 0 to 25%
11 | CN(C)CCn1ccc2c(NC(=O)c3cccc4c3OCCO4)cccc2c1=O [Compound 1169] | 0 to 25%
12 | COc1ccc(CC(=O)Nc2cccc3c(=O)n(CCN(C)C)ccc23)cc1C [Compound 1178] | 0 to 25%
13 | CN(C)CCn1ccc2c(NC(=O)CCc3ccccc3Cl)cccc2c1=O [Compound 1037] | 0 to 25%
14 | Cc1cc(C)c(CC(=O)Nc2cccc3c(=O)n(CCN(C)C)ccc23)c(C)c1 [Compound 1036] | 0 to 25%
15 | CC(=O)OCCn1ccc2c(NC(=O)CC3(O)CCCCCC3)cccc2c1=O [Compound 1015] | ≥ 76%
16 | COc1ccc(CC(=O)Nc2cccc3c(=O)n(CC4CCOCC4)ccc23)cc1C [Compound 1127] | 0 to 25%
17 | COCCn1ccc2c(NC(=O)CCc3ccc4c(c3)OCO4)cccc2c1=O [Compound 1070] | 0 to 25%
18 | CN(C)CCn1ccc2c(NC(=O)CCc3ccc4c(c3)OCO4)cccc2c1=O [Compound 1038] | 0 to 25%
19 | COc1cccc(CCC(=O)Nc2cccc3c(=O)n(C)ccc23)c1 [Compound 1058] | 0 to 25%
20 | COc1ccc(OC)c(CC(=O)Nc2cccc3c(=O)n(CCN(C)C)ccc23)c1 [Compound 1156] | 0 to 25%
21 | Cc1ccc(C(=O)Nc2cccc3c(=O)n(CCN(C)C)ccc23)c(C)c1 [Compound 1141] | 0 to 25%
22 | O=C(CCc1ccc2c(c1)OCO2)Nc1cccc2c(=O)n(CCN3CCOCC3)ccc12 [Compound 1046] | 0 to 25%

Next, values leading:

Row | inhibition at 0.3 µM | Compound
23 | 0 to 25% | CN(C)CCn1ccc2c(NC(=O)c3cc(Cl)cc(Cl)c3)cccc2c1=O [Compound 1143]
24 | 0 to 25% | Cc1ccc(Cl)c(C(=O)Nc2cccc3c(=O)n(CC4CCOCC4)ccc23)c1 [Compound 1128]
25 | 26 to 50% | CC(=O)OCCn1ccc2c(NC(=O)C3CCN(C(=O)OC(C)(C)C)CC3)cccc2c1=O [Compound 1012]
26 | 0 to 25% | Cc1cccc(C(=O)Nc2cccc3c(=O)n(CCN(C)C)ccc23)c1 [Compound 1145]
27 | 0 to 25% | Cc1cccc(C(=O)Nc2cccc3c(=O)n(CC4CCOCC4)ccc23)c1 [Compound 1090]
28 | 0 to 25% | COc1ccc(C(=O)Nc2cccc3c(=O)n(CC4CCOCC4)ccc23)cc1C [Compound 1133]

Same assay, conditions: 0.3 μM compound; differentiated THP-1 cells, BzATP 250 uM; symbols + to ++++; read-out: IL-1β % Inhib. @ 0.3 μM

Row | Compound | inhibition at 0.3 µM
29 | CC(C)(C)Cn1ccc2c(NC(=O)Cc3csc4ccccc34)cccc2c1=O [Compound 1274] | 0 to 25%
30 | COc1ccc(CC(=O)Nc2cccc3c(=O)n(Cc4cccnc4)ccc23)c(OC)c1 [Compound 1365] | 0 to 25%
31 | COc1ccccc1CC(=O)Nc1cccc2c(=O)n(Cc3cccnc3)ccc12 [Compound 1351] | 0 to 25%
32 | CCOc1ccc(CC(=O)Nc2cccc3c(=O)n(CCN4CCOCC4)ccc23)cc1 [Compound 1213] | 0 to 25%
33 | COc1ccc(CC(=O)Nc2cccc3c(=O)n(CCN4CCOCC4)ccc23)cc1C [Compound 1234] | 0 to 25%
34 | Cc1cccc(CCC(=O)Nc2cccc3c(=O)n(CCN4CCOCC4)ccc23)c1 [Compound 1237] | 26 to 50%
35 | CC(C)Cc1ccc(C(=O)Nc2cccc3c(=O)n(Cc4cccnc4)ccc23)cc1 [Compound 1372] | 0 to 25%
36 | O=C(Cc1csc2ccccc12)Nc1cccc2c(=O)n(CCN3CCOCC3)ccc12 [Compound 1226] | 0 to 25%
37 | COCCn1ccc2c(NC(=O)c3ccc(OC)c(C)c3)cccc2c1=O [Compound 1340] | 0 to 25%
38 | CCOc1ccccc1CC(=O)Nc1cccc2c(=O)n(CCOC)ccc12 [Compound 1336] | 0 to 25%
39 | COCCn1ccc2c(NC(=O)c3ccccc3C)cccc2c1=O [Compound 1310] | 0 to 25%

The remaining lines, values ahead:

Row | inhibition at 0.3 µM | Compound
40 | 0 to 25% | COCCn1ccc2c(NC(=O)Cc3ccc(OC)cc3)cccc2c1=O [Compound 1316]
41 | ≥ 76% | Cn1ccc2c(NC(=O)CCc3cccc(Cl)c3)cccc2c1=O [Compound 1309]
42 | 0 to 25% | Cc1cccc(CC(=O)Nc2cccc3c(=O)n(CCN4CCOCC4)ccc23)c1 [Compound 1211]
43 | 0 to 25% | COCCn1ccc2c(NC(=O)CCc3cccc(Cl)c3)cccc2c1=O [Compound 1342]
44 | 0 to 25% | COc1ccc(CC(=O)Nc2cccc3c(=O)n(CC(C)(C)C)ccc23)c(OC)c1 [Compound 1278]
45 | 0 to 25% | COc1cc(CC(=O)Nc2cccc3c(=O)n(CC(C)(C)C)ccc23)cc(OC)c1 [Compound 1266]
46 | 0 to 25% | COCCn1ccc2c(NC(=O)c3cc(C)c(OC)c(C)c3)cccc2c1=O [Compound 1323]
47 | 0 to 25% | CC(=O)OCCn1ccc2c(NC(=O)Cc3ccc4c(c3)OCCO4)cccc2c1=O [Compound 1377]

Same assay, conditions: THP-1; read-out: IL-1β % Inhib.

Row | Compound | inhibition
48 | O=C(Nc1cccc2c(=O)n(Cc3ccc(OC(F)(F)F)cc3)ccc12)c1ccc(-c2ccccc2)o1 [Compound 1551] | 0 to 25%
49 | COc1ccc(OC)c(CC(=O)Nc2cccc3c(=O)n(CC4CCN(C)CC4)ccc23)c1 [Compound 1472] | 0 to 25%
50 | O=C(Nc1cccc2c(=O)n(Cc3ccc(OC(F)(F)F)cc3)ccc12)c1cccc2c1OCCO2 [Compound 1595] | 0 to 25%
51 | CC(C(=O)Nc1cccc2c(=O)n(CCCN3CCCC3=O)ccc12)c1ccccc1 (centres unmarked) [Compound 1517] | 0 to 25%
52 | COc1ccc(C(=O)Nc2cccc3c(=O)n(CCCN4CCCC4=O)ccc23)c(C)c1 [Compound 1493] | 0 to 25%
53 | Cc1ccc(C(=O)Nc2cccc3c(=O)n(CC4CCN(C)CC4)ccc23)c(C)c1 [Compound 1462] | 0 to 25%
54 | COc1ccccc1CCC(=O)Nc1cccc2c(=O)n(CC3CCN(C)CC3)ccc12 [Compound 1467] | 0 to 25%
55 | Cc1cc(C(=O)Nc2cccc3c(=O)n(Cc4ccc(OC(F)(F)F)cc4)ccc23)ccc1Cl [Compound 1559] | 0 to 25%
56 | Cc1ccc(C(=O)Nc2cccc3c(=O)n(Cc4cccnc4)ccc23)cc1Cl [Compound 1451] | 0 to 25%
57 | CCOc1ccc(C(=O)Nc2cccc3c(=O)n(CC(C)(C)C)ccc23)cc1 [Compound 1415] | 0 to 25%
58 | COCCn1ccc2c(NC(=O)Cc3cccc(OC)c3)cccc2c1=O [Compound 1439] | 0 to 25%

Results, then the compound that gave them:

Row | inhibition | Compound
59 | 0 to 25% | Cc1ccccc1C(=O)Nc1cccc2c(=O)n(C)ccc12 [Compound 1419]
60 | 0 to 25% | CCOc1ccc(C(=O)Nc2cccc3c(=O)n(Cc4ccc(OC(F)(F)F)cc4)ccc23)cc1 [Compound 1568]
61 | 26 to 50% | O=C(Nc1cccc2c(=O)n(CCCN3CCCC3=O)ccc12)C(O)c1ccccc1Cl (centres unmarked) [Compound 1531]
62 | 0 to 25% | O=C(CCc1cccc(Cl)c1)Nc1cccc2c(=O)n(CCCN3CCCC3=O)ccc12 [Compound 1547]
63 | 0 to 25% | CN1CCC(Cn2ccc3c(NC(=O)CCc4cccc(Cl)c4)cccc3c2=O)CC1 [Compound 1492]

Same assay, conditions: THP-1 cells, BzATP-stimulated IL-1β release, four parameter logistic fit

Row | Compound | IC50
64 | CC(C)(C)OC(=O)N1CCC[C@H]1Cn1ccc2c(NC(=O)CC3CCCCCC3)cccc2c1=O [Compound 1619] | 67.2 nM
65 | CS(=O)(=O)CCn1ccc2c(NC(=O)CC3(O)CCCCCC3)cccc2c1=O [Compound 1625] | > 1000 nM
66 | CC(=O)OCCn1ccc2c(NC(=O)CC3(O)CCCCCC3)cccc2c1=O [Compound 1015] | 171 nM
67 | COCCn1ccc2c(NC(=O)Cc3ccc(Cl)c(C(F)(F)F)c3)cccc2c1=O [Compound 1623, 2-(4-Chloro-3-trifluoromethyl-phenyl)-N-[2-(2-methoxy-ethyl)-1-oxo-1,2-dihydro-isoquinolin-5-yl]-acetamide] | 9.24 nM
68 | CC(C(N)=O)n1ccc2c(NC(=O)C3COc4cc(C(C)(C)C)ccc4O3)cccc2c1=O (centres unmarked) [Compound 1622] | > 1000 nM

Next, values leading:

Row | IC50 | Compound
69 | 315 nM | CS(=O)(=O)CCn1ccc2c(NC(=O)Cc3ccc(Cl)c(Cl)c3)cccc2c1=O [Compound 1632]
70 | 422 nM | CC(=O)OCCn1ccc2c(NC(=O)C3CCN(C(=O)OC(C)(C)C)CC3)cccc2c1=O [Compound 1012]
71 | > 1000 nM | CC(=O)OCCn1ccc2c(NC(=O)Cc3ccc4c(c3)OCCO4)cccc2c1=O [Compound 1377]
